The record followed here is patent publication US8716292B2, “Riminophenazines with 2-(heteroaryl)amino substituents and their anti-microbial activity” (priority 2010, dated 2014).

Converted amounts (≈) assume the structure as drawn.

The subject of one assay is Mycobacterium tuberculosis H37Rv strains. Kind of assay: In vitro assay for antimicrobial susceptibility (microplate Alamar blue MIC). Particulars: Mycobacterium tuberculosis, H37RV, 7H9, Alamar blue, inhibition ≧90%; read-out: MIC (μg/mL) against H37Rv. It is filed as cell-based. On the technique in general: Alamar Blue is a resazurin reagent that responds to reducing activity.
For the compound `CC(C)/N=c1\cc2n(-c3ccc(OC(F)(F)F)cc3)c3ccccc3nc-2cc1Nc1cnccn1` [TBI-953, 5-(4-Trifluoromethoxyphenyl)-3-(1-methylethyl)imino-2-(pyrazin-2-yl)amino-3,5-dihydrophenazine], the MIC was 0.015 µg/mL (≈ 0.0306 µM).

Still in this assay, the particulars now being: Mycobacterium tuberculosis, H37RV, in vitro, Mycobacterium tuberculosis H37Rv strains; read-out: MIC (μg/mL) against H37Rv.
As to `COc1ncccc1Nc1cc2nc3ccccc3n(-c3ccc(C(F)(F)F)cc3)c-2c/c1=N\C1CCOCC1` [TBI-701, 5-(4-Trifluoromethylphenyl)-3-(4-tetrahydropyranyl)imino-2-(2-methoxy-3-pyridyl)amino-3,5-dihydrophenazine], the MIC came out at 0.016 µg/mL (≈ 0.0293 µM).

For `FC(F)(F)Oc1cccc(-n2c3c/c(=N\C4CCOCC4)c(Nc4cccnc4)cc-3nc3ccccc32)c1` [TBI-1020, 5-(3-Trifluoromethoxyphenyl)-3-(4-tetrahydropyranyl)imino-2-(3-pyridyl)amino-3,5-dihydrophenazine], the MIC came to 0.058 µg/mL (≈ 0.109 µM). Take `Cc1ccc(Nc2cc3nc4ccccc4n(-c4ccc(Cl)c(Cl)c4)c-3c/c2=N\C(C)C)cn1` [TBI-353]: the MIC worked out at 0.025 µg/mL (≈ 0.0512 µM). With `CC(=O)Nc1ccc(Nc2cc3nc4ccccc4n(-c4ccc(F)cc4)c-3c/c2=N\C2CCCCC2)cn1` [TBI-916, 5-(4-Fluorophenyl)-3-cyclohexylimino-2-(6-acetamino-3-pyridyl)amino-3,5-dihydrophenazine], the MIC was found to be 0.014 µg/mL (≈ 0.0269 µM). Consider `Cc1ccc(Nc2cc3nc4cc(F)ccc4n(-c4ccc(Cl)c(Cl)c4)c-3c/c2=N\C(C)C)cn1` [TBI-887, 8-Fluoro-5-(3,4-dichlorophenyl)-3-(1-methylethyl)imino-2-(6-methyl-3-pyridyl)amino-3,5-dihydrophenazine], for which the MIC came to 0.062 µg/mL (≈ 0.122 µM).

For the compound `Cc1ccc(Nc2cc3nc4ccccc4n(-c4ccc(F)cc4)c-3c/c2=N\C2CC2)cn1` [TBI-908, 5-(4-Fluorophenyl)-3-cyclopropylimino-2-(6-methyl-3-pyridyl)amino-3,5-dihydrophenazine], the MIC was 0.03 µg/mL (≈ 0.0689 µM). Still for that read-out and setting: in the case of `Cc1ccc(Nc2cc3nc4ccccc4n(-c4ccccc4)c-3c/c2=N\C2CCOCC2)cn1` [TBI-070, 5-Phenyl-3-(4-tetrahydropyranyl)imino-2-(6-methyl-3-pyridyl)amino-3,5-dihydrophenazine] it was 0.08 µg/mL (≈ 0.173 µM); in that of `COC1CCC(/N=c2\cc3n(-c4ccccc4)c4ccccc4nc-3cc2Nc2cccnc2C)CC1` (stereo not drawn) [TBI-076], 0.042 µg/mL (≈ 0.0858 µM).

For `Cc1ccc(-n2c3c/c(=N\C4CCC4)c(Nc4cncc(C)c4)cc-3nc3ccccc32)cc1` [TBI-348, 5-(4-Methylphenyl)-3-cyclobutylimino-2-(5-methyl-3-pyridyl)amino-3,5-dihydrophenazine], the MIC was 0.118 µg/mL (≈ 0.265 µM).

Turning to `COc1ccc2nc3cc(Nc4ccc(C)nc4)/c(=N/C4CCC(OC)CC4)cc-3n(-c3ccc(Cl)cc3)c2c1` (stereo not drawn) [TBI-867, 7-Methoxy-5-(4-chlorophenyl)-3-(4-methoxycyclohexyl)imino-2-(6-methyl-3-pyridyl-amino)-3,5-dihydrophenazine], the MIC worked out at 0.058 µg/mL (≈ 0.105 µM). In the case of `COc1ncccc1Nc1cc2nc3ccccc3n(-c3ccc(Cl)cc3)c-2c/c1=N\CCN1CCOCC1` [TBI-439, 5-(4-Chlorophenyl)-3-(2-morpholinoethyl)imino-2-(2-methoxy-3-pyridyl)amino-3,5-dihydrophenazine], the MIC amounted to 0.06 µg/mL (≈ 0.111 µM). On the same count and under the same terms, the figure for `COc1ncccc1Nc1cc2nc3ccccc3n(-c3ccc(Cl)cc3)c-2c/c1=N\C1CCN(C)CC1` [TBI-440, 5-(4-Chlorophenyl)-3-(N-methyl-4-piperidyl)imino-2-(2-methoxy-3-pyridyl)amino-3,5-dihydrophenazine] is 0.06 µg/mL (≈ 0.114 µM). On to `Cc1ccc(Nc2cc3nc4ccccc4n(-c4ccc(Cl)cc4)c-3c/c2=N\C2CCN(CC(C)C)CC2)cn1` [TBI-447, 5-(4-Chlorophenyl)-3-(N-isobutyl-4-piperidyl)imino-2-(6-methyl-3-pyridyl)amino-3,5-dihydrophenazine], for which the MIC amounted to 0.028 µg/mL (≈ 0.0508 µM). Same read-out and setting: the figure for `Cc1ccc(Nc2cc3nc4ccccc4n(-c4cccc(Cl)c4)c-3c/c2=N\C2CCOCC2)cn1` [TBI-80A, 5-(3-Chlorophenyl)-3-(4-tetrahydropyranyl)imino-2-(6-methyl-3-pyridyl)amino-3,5-dihydrophenazine] is 0.125 µg/mL (≈ 0.252 µM); for `COc1ncccc1Nc1cc2nc3ccccc3n(-c3ccc(Br)cc3)c-2c/c1=N\C1CCC1` [TBI-520] it is 0.043 µg/mL (≈ 0.0817 µM); for `COc1ncccc1Nc1cc2nc3ccccc3n(-c3ccccc3OC(F)(F)F)c-2c/c1=N\C1CCOCC1` [TBI-1045, 5-(2-Trifluoromethoxyphenyl)-3-(4-tetrahydropyranyl)imino-2-(2-methoxy-3-pyridyl)amino-3,5-dihydrophenazine] it is 0.4 µg/mL (≈ 0.712 µM). For the compound `Cc1ccc(-n2c3c/c(=N\C4CCOCC4)c(Nc4cccnc4C)cc-3nc3ccccc32)cc1` [TBI-323, 5-(4-Methylphenyl)-3-(4-tetrahydropyranyl)imino-2-(2-methyl-3-pyridyl)amino-3,5-dihydrophenazine], the MIC came to 0.057 µg/mL (≈ 0.12 µM). With `COc1ncccc1Nc1cc2nc3ccccc3n(-c3ccc(C)cc3)c-2c/c1=N\CCN1CCOCC1` [TBI-311, 5-(4-Methylphenyl)-3-(2-morpholinoethyl)imino-2-(2-methoxy-3-pyridyl)amino-3,5-dihydrophenazine], the MIC worked out at 0.125 µg/mL (≈ 0.24 µM). Same read-out and setting: in the case of `Cc1ncccc1Nc1cc2nc3ccccc3n(-c3cccc(OC(F)(F)F)c3)c-2c/c1=N\C1CCCCC1` [TBI-1034, 5-(3-Trifluoromethoxyphenyl)-3-cyclohexylimino-2-(2-methyl-3-pyridyl)amino-3,5-dihydrophenazine] it was 0.059 µg/mL (≈ 0.109 µM). Still for that read-out and setting: the figure for `COc1ncccc1Nc1cc2nc3ccccc3n(-c3cccc(OC(F)(F)F)c3)c-2c/c1=N\C1CCC(OC)CC1` (stereo not drawn) [TBI-1039, 5-(3-Trifluoromethoxyphenyl)-3-(4-methoxycyclohexyl)imino-2-(2-methoxy-3-pyridyl)amino-3,5-dihydrophenazine] is 0.059 µg/mL (≈ 0.1 µM).

For the compound `COC1CCC(/N=c2\cc3n(-c4ccc(F)cc4)c4ccccc4nc-3cc2Nc2cccnc2C)CC1` (stereo not drawn) [TBI-1013, 5-(4-Fluorophenyl)-3-(4-methoxycyclohexyl)imino-2-(2-methyl-3-pyridyl)amino-3,5-dihydrophenazine], the MIC was determined as 0.019 µg/mL (≈ 0.0374 µM). The same measure, in the same setting: in the case of `Cc1ccc(-n2c3c/c(=N\C(C)C)c(Nc4cccnc4)cc-3nc3ccccc32)cc1` [TBI-300, 5-(4-Methylphenyl)-3-(1-methylethyl)imino-2-(3-pyridyl)amino-3,5-dihydrophenazine] it was 0.03 µg/mL (≈ 0.0715 µM). Turning to `Cc1ccc(Nc2cc3nc4cc(F)ccc4n(-c4ccc(OC(F)(F)F)cc4)c-3c/c2=N\C(C)C)cn1` [TBI-863, 8-Fluoro-5-(4-trifluoromethoxyphenyl)-3-(1-methylethyl)imino-2-(6-methyl-3-pyridyl)amino-3,5-dihydrophenazine], the MIC is 0.061 µg/mL (≈ 0.117 µM). In the case of `CC(C)CN1CCC(/N=c2\cc3n(-c4ccc(OC(F)(F)F)cc4)c4ccccc4nc-3cc2Nc2cccnc2)CC1` [TBI-158, 5-(4-Trifluoromethoxyphenyl)-3-(N-isobutyl-4-piperidyl)imino-2-(3-pyridyl)amino-3,5-dihydrophenazine], the MIC turned out to be 0.03 µg/mL (≈ 0.0511 µM). Consider `COC1CCC(/N=c2\cc3n(-c4ccc(Cl)c(Cl)c4)c4cc(F)ccc4nc-3cc2Nc2ccc(C)nc2)CC1` (stereo not drawn) [TBI-897, 7-Fluoro-5-(3,4-dichlorophenyl)-3-(4-methoxycyclohexyl)imino-2-(6-methyl-3-pyridyl)amino-3,5-dihydrophenazine], for which the MIC is 0.25 µg/mL (≈ 0.434 µM). As to `Cc1ncccc1Nc1cc2nc3ccccc3n(-c3cccc(OC(F)(F)F)c3)c-2c/c1=N\C(C)C` [TBI-1032, 5-(3-Trifluoromethoxyphenyl)-3-(1-methylethyl)imino-2-(2-methyl-3-pyridyl)amino-3,5-dihydrophenazine], the MIC is 0.107 µg/mL (≈ 0.213 µM). In the case of `COc1ncccc1Nc1cc2nc3ccccc3n(-c3ccc(C)cc3)c-2c/c1=N\C1CCN(C)CC1` [TBI-313, 5-(4-Methylphenyl)-3-(N-methyl-4-piperidyl)imino-2-(2-methoxy-3-pyridyl)amino-3,5-dihydrophenazine], the MIC was determined as 0.016 µg/mL (≈ 0.0317 µM).

As for `Clc1ccc(-n2c3c/c(=N\C4CCCCC4)c(Nc4cccnc4)cc-3nc3ccccc32)c(Cl)c1` [TBI-368, 5-(2,4-Dichlorophenyl)-3-cyclohexylimino-2-(3-pyridyl)amino-3,5-dihydrophenazine], the MIC was determined as 0.054 µg/mL (≈ 0.105 µM).

For the compound `COc1ncccc1Nc1cc2nc3ccccc3n(-c3cccc(OC(F)(F)F)c3)c-2c/c1=N\C(C)C` [TBI-1038, 5-(3-Trifluoromethoxyphenylethylethyl)imino-2-(2-methoxy-3-pyridyl)amino-3,5-dihydrophenazine], the MIC was determined as 0.118 µg/mL (≈ 0.227 µM).

For the compound `COc1ccc(Nc2cc3nc4ccccc4n(-c4ccc(F)cc4)c-3c/c2=N\C2CCCCC2)cn1` [TBI-932, 5-(4-Fluorophenyl)-3-cyclohexylimino-2-(6-methoxy-3-pyridyl)amino-3,5-dihydrophenazine], the MIC was 0.148 µg/mL (≈ 0.3 µM). Consider `Cc1ncccc1Nc1cc2nc3ccccc3n(-c3ccccc3)c-2c/c1=N\C(C)C` [TBI-073, 5-Phenyl-3-(1-methylethyl)imino-2-(2-methyl-3-pyridyl)amino-3,5-dihydrophenazine], for which the MIC was determined as 0.058 µg/mL (≈ 0.138 µM).

`COc1ccc2nc3cc(Nc4cccnc4OC)/c(=N/C4CC4)cc-3n(-c3ccc(Cl)cc3)c2c1` [TBI-894, 7-Methoxy-5-(4-chlorophenyl)-3-cyclopropylimino-2-(2-methoxy-3-pyridyl)amino-3,5-dihydrophenazine]: the MIC came to 0.06 µg/mL (≈ 0.12 µM). As to `Cc1cncc(Nc2cc3nc4ccccc4n(-c4ccccc4)c-3c/c2=N\C2CCCCC2)c1` [TBI-082, 5-Phenyl-3-cyclohexylimino-2-(5-methyl-3-pyridyl)amino-3,5-dihydrophenazine], the MIC came out at 0.111 µg/mL (≈ 0.242 µM). On the same count and under the same terms, in the case of `Cc1ccc(Nc2cc3nc4ccccc4n(-c4ccc(OC(F)(F)F)cc4)c-3c/c2=N\C2CCOCC2)cn1` [TBI-950, 5-(4-Trifluoromethoxyphenyl)-3-(4-tetrahydropyranyl)imino-2-(6-methyl-3-pyridyl)amino-3,5-dihydrophenazine] it was 0.035 µg/mL (≈ 0.0642 µM).

The same assay, now with this note: in vitro, Mycobacterium tuberculosis H37Rv strains.
In the case of `COc1ncccc1Nc1cc2nc3ccc(F)cc3n(-c3ccc(Cl)cc3)c-2c/c1=N\C(C)C` [TBI-741, 5-(4-Chlorophenyl)-3-(1-methylethyl)imino-2-(2-methoxy-3-pyridyl)amino-7-fluoro-3,5-dihydrophenazine], the “MIC (μg/mL) against H37Rv” value was 0.035 µg/mL (≈ 0.0717 µM).
